Reference: publication PMC4440585 (Biochemistry, 2015)

Biological target: mitochondrial complex I (Rattus norvegicus, UniProt A6K8N6+P03889+Q641Y2)
Test: NADH oxidation at […] nm, NADH:ubiquinone-1 activity of solubilized mitochondria
Format: biochemical
Details: read-out: % inhibition at 25 mM

Question: For `CN(C)C(=N)NC(=N)N` [metformin], which inhibition at 25000 µM is on record?
Answer: The inhibition at 25000 µM was 12.1%.
